What was measured:
[1] = Tablet hardness versus compression force of lubricated tablets; type: physicochemical; conditions: for direction of change in tablet hardness: Example 8: lowest level/shortest blend time versus highest level/longest blend time
Description: Blends consisting of five separate levels of each lubricant type were prepared, with the lubricant blending time set for up to 60 minutes. After the addition of lubricant to the ibuprofen-MCC premix and the initiation of blending, a portion of each blend (enough to make a representative number of tablets) was withdrawn at each of 5 intervals (5, 15, 30, 45 and 60 minutes). […]
Tablet hardnesses and ejection forces were measure for each variant.

[2] = Lubricant-API stability of 1:1 aspirin-lubricant blends by NIR spectra; type: physicochemical; conditions: all tested storage conditions, 2 months
Description: Example 9 is a study which examined the lubricant-API stability of rice bran wax, in comparison with magnesium stearate. Aspirin was chosen as a model API for the study. Magnesium stearate is known to interact unfavorably with aspirin. Aspirin also has a known tendency to convert to salicylic acid in the presence of moisture.
Aspirin and lubricant were ground together at a 1:1 ratio by weight with a glass mortar and pestle, then portioned into three vials which were labeled for room temperature (ambient) storage or for storage closed or open in a stability chamber at 40° C. and 75% RH. Near-IR (NIR) spectra were obtained periodically over two months of storage under these three different conditions.
FIG. 22 is an NIR spectra of the study components of Example 9, and provides the following depictions: aspirin (close dash), magnesium stearate (far dash), rice bran wax (solid) and salicylic acid (dotted). Near IR spectra were obtained on a Metrohm 6500 RCA (Rapid Content Analyzer) reflectance NIR (JRS #1219) and a standard normal variate (SNV) pre-processing routine was used to normalize the spectra for comparison.

[3] = Example 8: lowest level/shortest blend time versus highest level/longest blend time (1.0%, 60 min), at each compression force

## CCCCCCCCCCCCCCCCCCOC(=O)/C=C/C(=O)[O-].[Na+] [Pruv®, sodium stearyl fumarate]
[1]
  direction of change in tablet hardness: drop in tablet hardness
[1]; [3]
  drop in tablet hardness: < 3 N

## magnesium stearate
[1]; Example 8: 1% lubricant, 60 minute blend, FIG. 18
  tablet hardness: softest tablets
[1]; Example 8: 15 kN compaction force, 0.125%/5 min versus 1.0%/60 min, FIG. 19
  drop in tablet hardness: ~16 N
[1]; Example 8: highest lubricant level (1.0%), 5 minute blend, FIG. 17
  tablet hardness: lower tablet hardness values than sodium stearyl fumarate and hydrogenated vegetable oil
[1]
  direction of change in tablet hardness: drop in tablet hardness
[1]; [3]
  drop in tablet hardness: 11-20 N
[2]
  interaction between lubricant and aspirin: interacts with aspirin
